Among the data in a melting point compilation (Tetko et al.; mined from patent text by program, amines drawn as free bases though some values may be those of a salt) are melting point values, retold here.

Regarding `CN(C(=O)Cc1cccc2ccccc12)C1c2ccccc2CCC1N1CCCC1` (centres undefined), the melting point (usually the temperature of the solid-liquid transition) worked out at 125 °C.

`Cc1cccc(-c2coc3cc(O)c(O)cc3c2=O)c1` had a melting point of 258 °C.

The compound `Cc1cccc2c(Nc3ccc(OCCN(CCCl)CCCl)cc3)c3cccc(C(=O)NCCN(C)C)c3nc12` yielded a melting point of 185 to 186 °C.

`O=C(Nc1ccc(Oc2ccnc(NCCN3CCCC3)n2)c2ccccc12)c1cc(F)cc(N2CCOCC2)c1` registered a melting point of 95 to 97 °C.

As for `Fc1c(F)c(F)c(CSc2nc3ccccc3s2)c(F)c1F`, the melting point was 51 to 53 °C.

On to `CCCc1nc2c(N)nc3ccccc3c2n1CC1(O)CCC1`, for which the melting point lay within 228 to 229 °C.

Regarding `COc1ccc2c(c1)c(CN(O)C(=O)N(C)C)c(C)n2C(=O)c1ccc(Cl)cc1`, the melting point lay in the range of 173 to 174 °C.

Compound `COc1cc(C(=O)CS(C)(=O)=O)cc(OC)c1NC(C)=O` had a melting point of 193 to 195 °C.

In turn, `Nc1c(N=O)c(=O)n(CC2CCCC2)c(=O)n1CC1CCCC1` returned a melting point of 254 to 255 °C.

`C=CCCCn1nnc(-c2ccc3[nH]c(CCCC)nc(=O)c3c2)n1` had a melting point of 130 °C.

Regarding `O=C1CC(c2ccc(Cl)cc2)CO1` (centres undefined), the melting point was 52 to 54 °C.

As to `CCCc1cc(I)ccc1O`, the melting point lay within 54 to 56 °C.

Consider `CN1C(C(=O)Nc2cncc(Cl)n2)=C(O)c2ccc3ccccc3c2S1(=O)=O`, for which the melting point fell in the range of 209 to 210 °C.

For the compound `COc1cc2c(cc1OC)CN(CCCOc1ccc(NC(=O)c3cccc(C(=O)c4ccccc4)c3)cc1)CC2`, the melting point is greater than 260 °C.

In turn, `CCOC(=O)c1cc(-c2csc(-c3cccnc3)n2)[nH]n1` displayed a melting point of 105 to 107 °C.

`COc1cc(C(=O)O)c(C(=O)O)c(Cl)c1Cl` displayed a melting point of 218 to 220 °C.

Turning to `O=[N+]([O-])C=C1SCCN1Cc1cccnc1`, the melting point fell in the range of 96 to 100 °C.

Take `CN(C)C/C=C/C(=O)N1CCOc2cc3ncc(C#N)c(Nc4ccc(F)c(Cl)c4)c3cc21`: the melting point fell in the range of 199 to 200 °C.

`O[C@H](COc1cccc2[nH]ccc12)CN1CCC(c2c[nH]c3ccc(F)cc23)CC1`: the melting point lay in the range of 94 to 97 °C.

Turning to `NCCCP(=O)(O)C1SCCS1`, the melting point is 272 to 274 °C.

In the case of `Cc1ccc(C(=O)c2c(O)cc(C(=O)O)cc2[N+](=O)[O-])cc1`, the melting point was in the range of 250 to 251 °C.

Take `NS(=O)(=O)c1ccc(-c2cnn(-c3ccc(F)cc3)c(=O)c2Oc2ccc(F)cc2)cc1`: the melting point lay within 227 to 229 °C.

In turn, `O=S(=O)(NCC1CCN(C[C@H]2COc3ccc(Br)cc3O2)CC1)c1cccc(Cl)c1Cl` returned a melting point of 93 to 95 °C.

Turning to `N=C(CCOCC(COCCC(=N)NO)(COCCC(=N)NO)COCCC(=N)NO)NO` (centres undefined), the melting point stood at 60 °C.

The compound `CCCCCCCCOc1ccc(-c2ccc(C(C)OC(=O)CCC)cc2)cc1` (single isomer, unassigned; (+)) showed a melting point of 56.9 °C.

In the case of `COc1ccc(C2CN(Cc3ccc4ccccc4n3)C(=O)N(Cc3ccc4ccccc4n3)C2)cc1OC1CC2CCC1C2` (centres undefined), the melting point is 135 to 136 °C.

On to `COc1ccc(NC(=O)C=NO)cc1C`, for which the melting point fell in the range of 163 to 165 °C.

For `Nc1cc(/C=C/c2nc3ccccc3s2)ccc1O`, the melting point lay in the range of 192 to 193 °C.

The compound `CC(=O)NC1Cc2ccccc2C1` returned a melting point of 126 to 128 °C.

As for `CCCCCC[C@@H](CC(N)=O)N(CCC)C(=O)[C@H](CCCC(=O)O)NC(=O)c1cn(Cc2ccccc2)c2ccccc12`, the melting point was 147 to 157 °C.

With `Cn1c(C(F)(F)F)cc(=O)n(-c2c(F)ccc3nc(Cl)sc23)c1=O`, the melting point fell in the range of 69 to 71 °C.

The compound `CC(=O)OCC1OC(Cl)C(N=[N+]=[N-])C(OC(C)=O)C1OC(C)=O` (centres undefined) gave a melting point of 102 to 104 °C.

On to `CC(=O)Cn1nc(C)oc1=O`, for which the melting point fell in the range of 55 to 58 °C.

On to `CC(=O)N1c2ccc(S(=O)(=O)C[N+](=O)[O-])c(C)c2CC1C` (centres undefined), for which the melting point is 157 °C.

`CCOc1nsc(NC(=O)N(C)C)c1C(N)=O` returned a melting point of 172 °C.

`CC(C)CCCC(C)NC(=O)Oc1ccc(Oc2ccccc2)cc1Br` (centres undefined): the melting point lay in the range of 64 to 67 °C.

Take `OC1CCc2cc3c(cc21)OCO3` (centres undefined): the melting point was 92 to 94 °C.

Turning to `c1ccc(-c2cccc(-n3cnc4cccnc43)c2)cc1`, the melting point lay within 89 to 91 °C.

On to `O=Cc1cc(S(=O)(=O)O)c2cccnc2c1O`, for which the melting point is 286 to 288 °C.

Regarding `COc1ccc(-c2cc(S(N)(=O)=O)sc2-c2ccc(OC)c(S(N)(=O)=O)c2)cc1S(N)(=O)=O`, the melting point fell in the range of 242 to 244 °C.

The compound `O=S(=O)(CCCl)C1=NN(S(=O)(=O)CCCl)CS1` returned a melting point of 143 °C.

Regarding `COc1cc2nc(S)[nH]c2cc1OC`, the melting point lay in the range of 278 to 280 °C.

`CC(C)OC(=O)C(O)C(CC1CCCCC1)NC(=O)C(Cc1c[nH]cn1)NC(=O)C(CC(=O)N1CCOCC1)Cc1cccc2ccccc12` (mixture of isomers) registered a melting point of 103 to 106 °C.

In the case of `CCOC(=O)c1[nH]c(C)c2c1CCC2`, the melting point fell in the range of 166 to 167 °C.

In turn, `CC(C)c1ccc(OC(Cc2ccc(OCCNC(=O)c3ccc(-c4ccc(F)cc4)cc3)cc2)C(=O)O)cc1` (centres undefined) yielded a melting point of 192 to 193 °C.

In turn, `COc1ccc(N2C(=O)O[C@H](COc3ccc(C#N)cc3)[C@@H]2C)cc1` yielded a melting point of 127 to 128 °C.

`COc1cc(N(C(C)=O)c2c(C#N)cnc3ccsc23)c(Cl)cc1Cl` yielded a melting point of 202 to 204 °C.

Turning to `COc1ccc2c(c1OC)C(C)NC(=O)N2` (centres undefined), the melting point lay in the range of 210 to 212 °C.

`CC(=O)OC1C(N2CCCCC2)CC2C3CCC4CC(O)C(N5CCOCC5)CC4(C)C3CCC21C` (centres undefined) returned a melting point of 177 to 184 °C.

The compound `CNC(=NCCSSCc1nc[nH]c1C)NC#N` displayed a melting point of 137 to 142 °C.

Turning to `COCCCNc1ncnc2c1sc1nc(N3CCOCC3)c3c(c12)CC(C)(C)OC3`, the melting point is 178 to 179 °C.

Consider `C[C@H]1[C@H](NSc2ccccc2[N+](=O)[O-])C(=O)N1OCc1ccccc1`, for which the melting point is 97 to 100 °C.

`CC(C)(C)c1cc(C(C)(C)C)c2c(c1)C1(O)C(=O)c3ccccc3C1(O)O2` (centres undefined) showed a melting point of 200 to 203 °C.

Regarding `O=[N+]([O-])c1cccc(-c2nnc(NCc3cccc4ccccc34)s2)c1`, the melting point fell in the range of 150 to 151 °C.

The compound `O=C(O)C(O)C(Sc1ccc(O)cc1)c1ccccc1CCCCCCCCc1ccccc1` (centres undefined) yielded a melting point of 155 to 157 °C.

Regarding `Cc1cc(C)n(C(=O)CCNS(=O)(=O)c2ccc(Cl)cc2)n1`, the melting point amounted to 101 °C.

Take `Nc1cccc2c1CC=CC2`: the melting point lay in the range of 37 to 39 °C.

With `COc1cc2nc(N)nc(-c3cc(-c4ccccc4)cc(-c4ccc(O)cc4)c3)c2cc1OC`, the melting point is 255 to 257 °C.

Consider `COC(=O)CON=C(C(=O)O)C(=O)CCl`, for which the melting point was 127 to 128 °C.

On to `O=C1NCCN1Cc1cccc2ccccc12`, for which the melting point was in the range of 121 to 125 °C.

`CCc1cc(C=O)c(O)c(S(C)(=O)=O)c1` showed a melting point of 114 to 116 °C.

In turn, `O=C(O)C1(c2ccc(Cl)cc2)OCC2(CO1)c1ccccc1Oc1ccccc12` registered a melting point of 244 to 246 °C.

Compound `CC(C)(C)OC(=O)NCc1ccsc1CC(=O)O` showed a melting point of 62 to 63 °C.

For the compound `CC(CNS(=O)(=O)c1ccc(-c2ccccn2)s1)N1CCC(Oc2ccc(F)c(F)c2)CC1` (centres undefined), the melting point lay in the range of 153 to 154 °C.

Regarding `CCOC(=O)N(CC(=O)O)n1nnc2ccccc21`, the melting point lay in the range of 189 to 192 °C.

The compound `CC(=O)N1CCC(c2nc3cccc4c3n2CCC4)CC1` came in with a melting point of 139 to 140 °C.

In the case of `CCOC(=O)C1N=c2ccsc2=CN1N` (centres undefined), the melting point fell in the range of 139 to 141 °C.

The compound `CCOC(=O)C1=NOC2(CCC(C3CCCCC3)CC2)C1` (centres undefined) yielded a melting point of 64 to 71 °C.

`CC(C(=O)O)c1cccc(NC(=O)NCC(=O)N2[C@@H](c3ccccc3)CC[C@H]2C(=O)OC(C)(C)C)c1` (some centres undefined) yielded a melting point of 120 °C.

Compound `Cc1cccc(S(=O)(=O)n2c(CCCC(=O)O)cc3nc(Cl)ccc32)c1` registered a melting point of 165 °C.

In the case of `CCN(CC)C(=O)c1cc(-c2ccccc2)c(=O)n2c1-c1ccccc1C2`, the melting point was in the range of 170 to 172 °C.

`O=c1c(CCCc2ccncc2)cc2cccnc2n1-c1cccc2nsnc12` came in with a melting point of 191 to 192 °C.

Take `COc1ccc(Nc2ccc(-c3ccnc(Nc4cc(OC)c(OC)c(OC)c4)n3)cn2)cc1`: the melting point fell in the range of 209 to 210 °C.

The compound `O=C1CCCC2=C1C(c1cccc(Cl)c1)C1=C(CCCC1)N2` (centres undefined) had a melting point of 249 to 250 °C.

As to `COc1ccc(S(=O)(=O)N2CCc3cccc(-c4ccc(C#N)cc4)c32)cc1`, the melting point lay in the range of 157 to 159 °C.

In turn, `Cc1cccc(C2CCN(C(=O)Oc3ccccc3)CC2)c1` registered a melting point of 127 to 130 °C.

As for `CN(CCN1CCC(Nc2nc3ccccc3n2Cc2ccc(F)cc2)CC1)c1nccs1`, the melting point was 143 °C.

Consider `Cc1cc(=O)n2cccc(OCc3ccccc3Cl)c2n1`, for which the melting point is 166 to 168 °C.

In turn, `C=C(C)C(=O)OCCOCc1ccc(O)c2ncccc12` displayed a melting point of 90 to 91 °C.

`Cc1ccc(S(=O)(=O)OC[C@H]2COc3cc(C)c4c(c3O2)CC(=O)N4)cc1` had a melting point of 233 to 235 °C.

On to `N#Cc1nn(-c2c(Cl)cc(C(F)(F)F)cc2Cl)c(N)c1-c1cc(Cl)oc1Cl`, for which the melting point was in the range of 193 to 194 °C.

`O=C(COc1cccnc1)NCCCCC1CCN(C(c2ccccc2)c2ccccc2)CC1` had a melting point of 103 to 105 °C.

As for `COc1ccc2ccc3[nH]c4ccc5ccc(OC)cc5c4c3c2c1`, the melting point turned out to be 133 °C.

Compound `CCOc1cc(C(C#N)N2C(=O)c3cccc([N+](=O)[O-])c3C2=O)ccc1OC` (centres undefined) registered a melting point of 155 to 157 °C.

For `Cc1ccc(-c2ccc3c(c2)C=C(C(=O)Nc2ccc(CN4CCCCC4)cc2)CC(C)O3)cc1` (centres undefined), the melting point was 175 to 176 °C.

In turn, `COc1ccc2[nH]c(S(=O)Cc3ncc(C)c(N(C)C)c3Cl)nc2c1` (centres undefined) registered a melting point of 147 to 149 °C.

The compound `COC(=O)CC(NC(=O)C(C)(C)C)C(C)=O` (centres undefined) showed a melting point of 68 to 69 °C.

`O=C(O)C1c2ccccc2CSc2ccc(Br)cc21` (centres undefined): the melting point was in the range of 185 to 186 °C.

For `CCC1(C)Cc2c(C)c(Cl)c(C=O)c(C)c2C1` (centres undefined), the melting point fell in the range of 89 to 90 °C.
